Assay results from US20200299251A1, “FURAN SKELETON-CONTAINING IMINOGUANIDINE DERIVATIVE AS WELL AS PREPARATION AND APPLICATION THEREOF” (SUN YAT-SEN UNIVERSITY, priority 2017, published 2020).

Assays:
[1] = format: physicochemical
[2] = Release of H2O and CO2 by heating in watch glass under normal pressure (weight loss); format: physicochemical
Protocol: The weight-lost solid was dissolved into water, carbon dioxide gas was introduced, and the above substances were stirred for lh to separate out a yellow solid.
The weight was 2.6 g, and weight loss was 29.7%. The weight-lost solid was dissolved into water, carbon dioxide gas was introduced, and the above substances were stirred for 1 h to separate out a yellow solid.
The weight was 2.46 g, and weight loss was 33.7%. The weight-lost solid was dissolved into water, carbon dioxide gas was introduced, and the above substances were stirred for lh to separate out a yellow solid.
The weight was 2.45 g, and weight loss was 33.7%. The weight-lost solid was dissolved into water, carbon dioxide gas was introduced, and the above substances were stirred for lh to separate out a yellow solid.

[3] = Thermogravimetry infrared experiment; format: physicochemical; conditions: 10 K/min
Protocol: The temperature range was 25-800° C., and the heating rate was 10 K/min. […] It can be seen from FIG. 9B that this molecule can release water molecules and carbon dioxide molecules under the heating condition, and water molecules and carbon dioxide molecules are nearly released at the same time.

[4] = Differential scanning calorimetric experiment; format: physicochemical; conditions: 30-200° C., 10 K/min
[5] = Equilibrium constants and enthalpy changes of the process of absorbing and releasing carbon dioxide; format: physicochemical
[6] = Water solubility of FuBIG salts, UV absorbance of saturated aqueous solutions; conditions: saturated aqueous solution, UV absorbance at 368 nm
Protocol: The absorbance of the above concentration gradients was determined under this wavelength, and standard curves were plotted to obtain a curve equation Y=14705×−0.0825 (as shown in FIG. 13B).
It was known that the pKa of HCO3^− was 10.32.

[7] = Determination of pKa by pH titration with NaOH; format: physicochemical
Protocol: 0.077 g of FUBIG hydrochloride and 0.585 g of NaCl were weighed, the volume was metered to 50 mL with ultrapure water, and 26 μL of HCl (36%) was dropwise added. The mixed solution was stirred at 25° C. until the temperature was stabilized. The pH meter was calibrated respectively using potassium hydrogen phthalate (pH 4.00) buffer, mixed phosphate buffer (pH 6.86), sodium tetraborate buffer (pH 9.18), and then titration was conducted with 0.1M NaOH solution. After each titration, the system was stabilized after waiting for 7min, and then the next titration was conducted. The volume and pH value of each titration were recorded.
Plot was made according to the ph-V (mL). […] The same method was used to obtain: 15° C., pKa1=7.79, pKa2=8.90; at 20° C., pKa1=7.68, pKa2=8.82; at 30° C., pKa1=7.49, pKa2=8.66; at 35° C., pKa1=7.31, pKa2=8.59 (as shown in Table 3).

N=C(N)NN=Cc1ccc(C=NNC(=N)N)o1.O.O.O.O.O=C(O)O
pH of saturated aqueous solution ([1]; pH meter): 8.48
concentration of carbonate ion [CO3^2−] in the saturated solution ([1]; saturated aqueous solution, pH 8.48): 1.3(3)×10^−4 M
weight loss ([2]; heated for 5 h at 100° C.): 33.6%
weight loss ([2]; heated for 12 h at 70° C.): 29.7%
weight loss ([2]; heated for 12 h at 120° C.): 33.7%
weight loss ([2]; heated for 12 h at 180° C.): 33.7%
temperature at which the weight loss rate is the maximum ([3]; 25-800° C.): 100 °C
temperature at which water and carbon dioxide molecules are completely lost ([3]; 25-800° C.): 165 °C
weight loss ([3]; at 165° C.): 36.31%
temperature range of release of carbon dioxide and water (DSC) [4]: 97.89-109.13 °C
Enthalpy change ΔH ([5]; FuBIGH2(CO3)(H2O)4 precipitate): -24.276 kcal/mol
Equilibrium constant K ([5]; FuBIGH2(CO3)(H2O)4 precipitate): 1.63 × 10^7
Solubility(FuBIG cation concentration, M) [6]: 9.3 (4)×10^−3 M

Cl.N=C(N)NN=Cc1ccc(C=NNC(=N)N)o1
Solubility(FuBIG cation concentration, M) [6]: 0.74 (6) M

N=C(N)NN=Cc1ccc(C=NNC(=N)N)o1.O.O.O=[N+]([O-])O.O=[N+]([O-])O
Solubility(FuBIG cation concentration, M) [6]: 3.3 (2)×10^−2 M

N=C(N)NN=Cc1ccc(C=NNC(=N)N)o1.O=S(O)O
Solubility(FuBIG cation concentration, M) [6]: 1.4 (2)×10^−3 M

N=C(N)N/N=C/c1ccc(/C=N/NC(=N)N)o1 [FuBIG]
pKa1 ([7]; 15° C.): 7.79
pKa2 ([7]; 15° C.): 8.90
pKa1 ([7]; 20° C.): 7.68
pKa2 ([7]; 20° C.): 8.82
pKa1 ([7]; 25° C.): 7.57
pKa2 ([7]; 25° C.): 8.71
pKa1 ([7]; 30° C.): 7.49
pKa2 ([7]; 30° C.): 8.66
pKa1 ([7]; 35° C.): 7.31
pKa2 ([7]; 35° C.): 8.59
Enthalpy change ΔH ([5]; FuBIG dissolution): 11.76 kcal/mol
Equilibrium constant K ([5]; FuBIG dissolution): 4.03 × 10^−1
Enthalpy change ΔH ([5]; FuBIG protonation): 11.01 kcal/mol
Equilibrium constant K ([5]; FuBIG protonation): 1.91 × 10^−12
Enthalpy change ΔH ([5]; Total CO2 absorbing process): -27.75 kcal/mol
Equilibrium constant K ([5]; Total CO2 absorbing process): 5.97 × 10^4
Enthalpy change ΔH ([5]; Total CO2 releasing process): 50.026 kcal/mol
melting point: 244 to 246 °C
